Drawing on patent US12357603B2, “Acyl sulfonamides for treating cancer” (Bayer Aktiengesellschaft, priority 2019, dated 2025), this text covers IC50 and EC50 for 20 molecules.

Experiment [1] addresses Recombinant human His-tagged Kat6a protein (amino acids 194-810) (Homo sapiens (Human), UniProt Q92794). The experiment is described as follows: Kat6a activity assay (TR-FRET, acetylation of biotinylated Histone-H4-derived peptide). In kind it is biochemical. To be noted: 60 mins at 22° C., read-out: KAT6A-DPF/HAT domain IC50 [mol/l] (arithmetic mean). From the text:
Kat6a inhibitory activities of the compounds described in the present invention were quantified using a Fluorescence Resonance Energy Transfer (TR-FRET) assay which measures acetylation of a synthetic, biotinylated Histone-H4-derived peptide by the enzyme.
Recombinant human His-tagged Kat6a protein (amino acids 194-810), was purified in-house from Baculovirus-infected insect cells (Sf9). Histone H4 peptide (amino acids 1-24, […]-VLRD-K(Btn)-amide), which was used as substrate, was synthesized by Biosyntan GmbH, Berlin, Germany. Acetyl Coenzyme A was purchased from Sigma-Aldrich (#A-2056).
Kat6a was incubated for 60 mins at 22° C. in the presence of different concentrations of test substances (0 μM, and within the range 0.01-20 μM) in assay buffer [25 mM Tris/HCl pH 8, 1 mM EGTA, 2.5 mM Glutathion, 0.02% Chicken Albumin, 0.05% Pluronic F127, 25 mM NaCl, 220 nM H4 peptide and 600 nM Acetyl Coenzym A].
The reaction was stopped by addition of Detection Solution (25 mM HEPES pH 7.5, 0.1% BSA, 22 nM SAXL665 (Cisbio #610SAXLE), 100 μM Anacardic Acid (Enzo #ALX-270-381), 1 nM Anti-Histone H4 (ACETYL K8) Antibody (ABCAM #AB15823) and 0.5 nM Anti-Rabbit IgG Eu (Perkin Elmer #AD0083).
The fluorescence emission at 620 nm and 665 nm after excitation at 330-350 nm was measured in a TR-FRET measuring instrument, for instance a Rubystar or a Pherastar (both from BMG Lab Technologies, Offenburg, Germany) or a Viewlux (Perkin-Elmer). The ratio of the emission at 665 nm and at […] was used as indicator of the amount of acetylated peptide.
The resulting data (ratio) were normalized, taking 0% inhibition as the mean value of control measurements where all reagents were included. In this case 50 nl DMSO were used instead of compounds. […] IC50 values were determined by regression analysis based on a 4 parameter equation (minimum, maximum, ICM, Hill; Y=Max+(Min−Max)/(1+(X/ICso) Hill) using the Screener Software (Genedata).
Table 5 depicts the IC50 values of selected examples in biochemical KAT6A and KAT6B3 assays.
Background: TR-FRET usually uses a lanthanide donor and a delayed reading to cut background.

In experiment [2] the test system is ESR1 transcription (luciferase signal in MVLN cells). The experiment is described as follows: Repression of ESR1 transcription, luciferase reporter in MVLN cells. The conditions noted are these: inhibition of luciferase signal in MVLN cells, arithmetic mean. In kind it is cell-based. From the text: Repression of ESR1 Transcription Upon Treatment of Cells with Compounds
KAT6A controls transcription of the ESR1 gene in breast cancer cells. Compound treatment that interferes with this mechanism was quantified using MVLN cells. These cells constitutively express the ER and are stably transfected with the luciferase (LUC) reporter gene and the corresponding hormone responsive element derived from the 5′-flanking region of the Xenopus Vitellogenin A2 gene (Pons et al., 1990, Demirpense et al., 1993, Joyeux et al., 1993). The repressive effect on ERα transcription activity of a test chemical is directly related to the luciferase measured in the lysate of treated MVLN cells.
Each sample was prepared as duplicate and rim wells were excluded. For luciferase signal determination 100 μl of a 1:1 mixture of Steadylite plus (Perkin Elmer; 6016759) and assay medium was added after 24 h for 15 minutes and measured in Victor X3 (Perkin Elmer). To exclude any effects caused by cell loss during the treatment, cell density was determined using Alamar Blue (Invitrogen; DAL1100). Prior to the luciferase measurement 10 μl Alamar Blue were added to each well and the plates were incubated for 2 h in the incubator. Then fluorescence was measured with Victor X3 (Perkin Elmer) at 530 nm/590 nm.
On the technique in general: Reporter assays use an easily measured gene product as a stand-in for the process of interest.

For a further experiment, the system named is MDA-MB-436 cells. The experiment is described as follows: Proliferation assay MDA-MB-436, negative control cell line (Alamar Blue, 144 h). Type of experiment: cell-based. The conditions noted are these: arithmetic mean. An excerpt: (§1) Proliferation Assays for Compound Characterization
(§2) For compound characterization cell survival assays were routinely run in two cell lines. ZR-75-1 is a breast carcinoma cell line containing a focal KAT6A amplification and high KAT6A protein expression. Proliferation of this cell line is inhibited upon treatment with KAT6A inhibitors. As a negative control cell line MDA-MB-436 were used. These cells carry a […] deletion of the KAT6A gene, have a low KAT6A protein expression and are not growth inhibited upon treatment with KAT6A inhibitors.
(§3) For measurements cell lines were plated at the below indicated concentration per […] in 96-well plates in a humidified incubator at 37° C. and 5% CO2.
MDA-MB-436 (CLS, 300278; breast adenocarcinoma); 3000 cells per well; culture medium: DMEM/Ham's F12 (Biochrom #FG 4815) medium containing 2.5% FBS (Biochrom #S0615).
(§4) 24 hours later, cells were treated with compounds (stock solution, 10 mM in DMSO) using the HP D300 Digital Dispenser in a concentration range of 2.0×10E-5 M to 2.0×10E-9 M in a single-dot curve with 9 dilutions and a DMSO concentration of 0.2%. Each sample was prepared as triplicate and rim wells were excluded. Plates were incubated at 37° C. and 5% CO2 for 144 h. Cell viability was measured by adding 10 μL of Alamar Blue Reagent (Invitrogen #DAL 1100) and plates were incubated for 2 h at 37° C. and 5% CO2. Fluorescence was measured at 590 nm wavelength with a Tecan Spark or Victor X3 MTP-Reader (PerkinElmer).
Background: The colour change of resazurin is a common sign of viable cells or microbes.

Another experiment has as its system ZR-75-1 cells. The experiment is described as follows: Proliferation assay ZR-75-1 (Alamar Blue, 144 h). Type of experiment: cell-based. The conditions noted are these: Homo sapiens, ZR-75-1, 144 h, arithmetic mean, read-out: ZR75-1 proliferation assay, EC50 [M] (arithmetic mean).
Description: as §1, §2, §3
ZR-75-1 (ATCC, CRL-1500; breast carcinoma); 3000 cells per well; culture medium: RPMI 1640 (Biochrom #FG 1215) medium containing 2.5% FBS (Biochrom #S0615).
as §4

[3] abbreviates: Homo sapiens, MDA-MB-436, 144 h.

A value given as a limit tells only on which side of the number the result lay.

Recombinant human His-tagged Kat6a protein (amino acids 194-810), sequence (Q92794 194-810): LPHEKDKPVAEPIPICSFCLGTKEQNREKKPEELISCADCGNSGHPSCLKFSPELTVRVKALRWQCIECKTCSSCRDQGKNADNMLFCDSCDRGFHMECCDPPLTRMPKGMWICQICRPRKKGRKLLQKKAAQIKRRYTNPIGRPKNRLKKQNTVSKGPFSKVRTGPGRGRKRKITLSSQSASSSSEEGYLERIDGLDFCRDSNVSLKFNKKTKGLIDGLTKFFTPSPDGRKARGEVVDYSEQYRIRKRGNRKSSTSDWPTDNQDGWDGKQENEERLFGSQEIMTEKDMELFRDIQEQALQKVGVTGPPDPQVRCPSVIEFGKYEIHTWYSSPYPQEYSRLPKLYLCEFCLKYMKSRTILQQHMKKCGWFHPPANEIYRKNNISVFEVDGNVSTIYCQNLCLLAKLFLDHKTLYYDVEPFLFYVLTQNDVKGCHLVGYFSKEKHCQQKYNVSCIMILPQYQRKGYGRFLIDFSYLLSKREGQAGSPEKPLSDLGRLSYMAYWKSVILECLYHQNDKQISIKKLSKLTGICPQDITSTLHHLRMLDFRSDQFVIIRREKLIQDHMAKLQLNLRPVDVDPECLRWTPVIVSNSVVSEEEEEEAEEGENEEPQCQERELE

Turning to `CCc1ccc2nc(C)c(S(=O)(=O)NC(=O)c3cc4ccc(N(C)C)cc4o3)n2n1` [Example 94, 6-(Dimethylamino)-N-(6-ethyl-2-methylimidazo[1,2-b]pyridazine-3-sulfonyl)-1-benzofuran-2-carboxamide], the IC50 came out at 287 nM in experiment [1] and 460 nM in experiment [2] (Homo sapiens, MVLN). The same molecule gave an EC50 with MDA-MB-436 cells (setting [3]) above 20000 nM.
The molecule `CCCN(C)c1ccc2cc(C(=O)NS(=O)(=O)c3ccccc3-c3ccccc3)oc2c1` [Example 37, N-([1,1′-Biphenyl]-2-sulfonyl)-6-[methyl(propyl)amino]-1-benzofuran-2-carboxamide] gave an IC50 in experiment [2] (Homo sapiens, MVLN) of 14000 nM. Also, the EC50 in the experiment with ZR-75-1 cells is above 2e-05 M; in the experiment on MDA-MB-436 cells (setting [3]) it was above 20000 nM.
In turn, `O=C(NS(=O)(=O)c1ccccc1-c1ccccc1)c1cc2ccc(N3CCCC3=O)cc2o1` [Example 62, N-([1,1′-Biphenyl]-2-sulfonyl)-6-(2-oxopyrrolidin-1-yl)-1-benzofuran-2-carboxamide] displayed an IC50 in experiment [2] (Homo sapiens, MVLN) of 3070 nM. Also, the EC50 with ZR-75-1 cells worked out at 1.09e-06 M; in the experiment on MDA-MB-436 cells (setting [3]), 11400 nM.
For `CCOc1ccc(Br)cc1S(=O)(=O)NC(=O)c1cc2ccc(N(C)CCOC)cc2o1` [Example 213, N-(5-Bromo-2-ethoxybenzene-1-sulfonyl)-6-[(2-methoxyethyl)(methyl)amino]-1-benzofuran-2-carboxamide], the IC50 in experiment [2] (Homo sapiens, MVLN) is 9880 nM. Moreover, the figures for the EC50 in the experiment with ZR-75-1 cells and in the experiment with MDA-MB-436 cells (setting [3]) were 8.48e-06 M and above 20000 nM, respectively.
Turning to `CN(C)c1ccc2cc(C(=O)NS(=O)(=O)c3ccccc3-c3ccc(CO)cc3)oc2c1` [Example 51, 6-(Dimethylamino)-N-[4′-(hydroxymethyl)[1,1′-biphenyl]-2-sulfonyl]-1-benzofuran-2-carboxamide], the EC50 with ZR-75-1 cells is 1.01e-07 M; with MDA-MB-436 cells (setting [3]), above 20000 nM.
Take `C[C@@H](Oc1cccc(OC2CCC2)c1S(=O)(=O)NC(=O)c1cc2ccc(N(C)C)cc2o1)C(F)(F)F` (single isomer, unassigned) [Example 222]: the IC50 in experiment [1] stood at 30.6 nM; in experiment [2], 595 nM. For the same molecule, the EC50 in the experiment with MDA-MB-436 cells was above 20000 nM.
Turning to `CC(O)c1ccc(Cl)c(S(=O)(=O)NC(=O)c2cc3ccc(N(C)C)cc3o2)c1` (stereo not drawn) [Example 163], the IC50 was 4350 nM in experiment [1] and above 20000 nM in experiment [2] (Homo sapiens, MVLN). Moreover, in the experiment on ZR-75-1 cells, the EC50 came out at 9.38e-07 M.
As to `CN(C)c1ccc2cc(C(=O)NS(=O)(=O)c3c(F)cccc3C3CCC3)oc2c1` [Example 158], the IC50 came out at 684 nM in experiment [1] and 1490 nM in experiment [2] (Homo sapiens, MVLN). Also, the EC50 in the experiment on ZR-75-1 cells was 7.93e-06 M.
Consider `CCCc1ccccc1S(=O)(=O)NC(=O)c1cc2ccc(N(C)C)cc2o1` [Example 52, 6-(Dimethylamino)-N-(2-propylbenzene-1-sulfonyl)-1-benzofuran-2-carboxamide], for which the EC50 in the experiment with ZR-75-1 cells was 1.94e-07 M; in the experiment with MDA-MB-436 cells (setting [3]), above 20000 nM.
With `C[C@H](Oc1cccc(OC2CCC2)c1S(=O)(=O)NC(=O)c1cc2ccc(N(C)C)cc2o1)C(F)(F)F` (single isomer, unassigned) [Example 221], the IC50 is 44.4 nM in experiment [1] and 582 nM in experiment [2]. Moreover, in the experiment on MDA-MB-436 cells, the EC50 is 8250 nM.
For `CCOc1ccc(C(C)C)cc1S(=O)(=O)NC(=O)c1cc2c(F)cc(N(C)C)cc2o1` [Example 107, 6-(Dimethylamino)-N-[2-ethoxy-5-(propan-2-yl)benzene-1-sulfonyl]-4-fluoro-1-benzofuran-2-carboxamide], the IC50 in experiment [1] turned out to be 2.29 nM; in experiment [2] (Homo sapiens, MVLN), 8.63 nM. Moreover, in the experiment on ZR-75-1 cells, the EC50 amounted to 4.49e-08 M.
In the case of `CN(C)c1ccc2cc(C(=O)NS(=O)(=O)c3cccnc3Cl)oc2c1` [Example 156], the IC50 came out at 3530 nM in experiment [1] and 971 nM in experiment [2] (Homo sapiens, MVLN). For the same molecule, the EC50 in the experiment with ZR-75-1 cells worked out at 4.97e-06 M.
As to `CN(C)c1ccc2cc(C(=O)NS(=O)(=O)c3ccc(F)c(F)c3F)oc2c1` [Example 153], the IC50 in experiment [1] was found to be 906 nM; in experiment [2] (Homo sapiens, MVLN) it was 2720 nM. Besides, in the experiment on ZR-75-1 cells, the EC50 turned out to be 2.77e-06 M.
Taken in the same sequence, the figures for `CCOc1ccccc1S(=O)(=O)NC(=O)c1cc2cc(C(F)(F)F)c(N(C)C)cc2o1` [Example 201, 6-(Dimethylamino)-N-(2-ethoxybenzene-1-sulfonyl)-5-(trifluoromethyl)-1-benzofuran-2-carboxamide] were 137 nM, 4230 nM and 2.9e-06 M.
On to `CC(C)c1ccc(C(C)C)c(S(=O)(=O)NC(=O)c2cc3ccc(N(C)C)cc3o2)c1` [Example 162], for which the IC50 stood at 366 nM in experiment [1] and 2550 nM in experiment [2] (Homo sapiens, MVLN). Besides, the EC50 in the experiment on ZR-75-1 cells is above 2e-05 M.
In the case of `COc1cc(C#N)ccc1S(=O)(=O)NC(=O)c1cc2ccc(N(C)C)cc2o1` [Example 53, N-(4-Cyano-2-methoxybenzene-1-sulfonyl)-6-(dimethylamino)-1-benzofuran-2-carboxamide], in experiment [1], the IC50 is 440 nM. In addition, the results for the EC50 in the experiment on ZR-75-1 cells and in the experiment on MDA-MB-436 cells (setting [3]) were 2.64e-07 M and above 20000 nM, respectively.
Regarding `CN(C)c1ccc2cc(C(=O)NS(=O)(=O)c3ccccc3-c3ccccc3)n(C)c2c1` [Example 210, N-([1,1′-Biphenyl]-2-sulfonyl)-6-(dimethylamino)-1-methyl-1H-indole-2-carboxamide], the IC50 stood at 6660 nM in experiment [1] and 11300 nM in experiment [2] (Homo sapiens, MVLN). For the same molecule, the EC50 in the experiment with ZR-75-1 cells was above 2e-05 M.
`CN(C)c1ccc2cc(C(=O)NS(=O)(=O)Cc3ccccn3)oc2c1` [Example 106, 6-(Dimethylamino)-N-[(pyridin-2-yl)methanesulfonyl]-1-benzofuran-2-carboxamide]: the IC50 is 3200 nM in experiment [1] and above 20000 nM in experiment [2] (Homo sapiens, MVLN). In the experiment on MDA-MB-436 cells (setting [3]), the EC50 is above 20000 nM.
`CN(C)c1ccc2cc(C(=O)NS(=O)(=O)c3cc(Cl)cc4cccnc34)oc2c1` [Example 124, N-(6-Chloroquinolone-8-sulfonyl)-6-(dimethylamino)-1-benzofuran-2-carboxamide] came in with an IC50 in experiment [2] (Homo sapiens, MVLN) of 254 nM. Besides, the EC50 in the experiment with MDA-MB-436 cells (setting [3]) is above 20000 nM.
Turning to `CN(C)c1ccc2cc(C(=O)NS(=O)(=O)c3cc(C(F)(F)F)ccc3NCC(F)F)oc2c1` [Example 165], the IC50 in experiment [1] was determined as 1290 nM; in experiment [2] (Homo sapiens, MVLN) it was 5770 nM. In addition, in the experiment on ZR-75-1 cells, the EC50 amounted to 9.21e-06 M.
